Assay results: patent publication US20260325538A1, “THERAPY” (priority 2023, published 2026)

Experiments:
NDM = settings: cited from earlier work
[1] = test system: gram-negative bacteria with MBL, for example Klebsiella pneumoniae, E. coli and Pseudomonas aeruginosa; settings: meropenem used alone; cited from earlier work
[2] = test system: Klebsiella pneumoniae Kpn St147 (NDM-1 and KPC-2); test: MIC determination of cefepime with zinc chelator and avibactam (checkerboard, broth microdilution); type: cell-based; settings: with FEP and zinc chelator
Procedure: (§1) Antimicrobial susceptibility testing (AST) by broth microdilution was performed according to The European Committee on Antimicrobial Susceptibility Testing. Reading guide for broth microdilution. Version 4.0, 2022 (see: http://www.eucast.org).
(§2) Checkerboard 96-well plates (Corning 3788) were made by conducting serial two-fold dilutions of cefepime in cation-adjusted Mueller Hinton II broth (caMHB; Thermo Scientific, T3462), in columns across the microtiter plate (64-0.03 μg/ml). Additionally, avibactam was added to rows 3 to 8 in concentrations of 64, 16, 8, 4, 1 and 0.25 μg/ml, respectively. The zinc chelator was added to the wells of the plate, where applicable. Three plates were made per experiment, one without the zinc chelator (plate 1), one with 16 μg/ml of the zinc chelator (plate 2) and one with 32 μg/ml of the zinc chelator (plate 3). The first row in all plates was used as a positive control for cefepime only, and the second row included the zinc chelator in addition to cefepime (no avibactam added to rows 1 or 2). The zinc chelator was added at the indicated concentration, to rows 3-8 of plates 2 and 3.
(§3) The effect of the combination of zinc chelator/FEP/avibactam was tested on a clinically isolated Klebsiella pneumoniae Kpn St147 actively constitutionally expressing the two resistance mechanisms NDM-1 and KPC-2 simultaneously. As a negative control, bacteria+FEP was tested alone. As a positive control, bacteria+FEP+zinc chelator was used. In Tables 1 and 2, concentrations (μg/ml) of FEP are given in the top row left to right and avibactam concentrations (μg/ml) are given top to bottom in column 1.
(§4) The fractional inhibitory concentration (FIC) is defined as the concentration that kills when used in combination with another agent divided by the concentration that has the same effect when used alone. The FIC index (FICI) for the combination of two agents is the sum of their individual FIC values. […] The European Committee for Antimicrobial Susceptibility Testing (EUCAST) of the European Society of Clinical Microbiology and Infectious Diseases (ESCMID) 2000 adopts the following definitions to determine the susceptibility of bacteria to an antimicrobial agent (see EUCAST Definitive Document E. Def 1.2: Terminology relating to methods for the determination of susceptibility of bacteria to antimicrobial agents. Clin. Microbiol. Infect. 2000; 6(9): 503-508): • FICI value≤0.5; synergy • 0.5<FICI value≤1; additive effect • 1<FICI value≤2; indifferent effect • FICI≥2; antagonistic effect
To test for synergy, all data were subjected to the following formula in which A=zinc chelator; B=cefepime; and C=avibactam:
(§5) ΣFICI=MICA(combination)/MICA (alone)+MICB(combination)/MICB (alone)+MICC(combination)/MICC (alone)

[3] = test system: Klebsiella pneumoniae Kpn St147 (NDM-1 and KPC-2); test: MIC determination of ceftazidime with zinc chelator and avibactam (checkerboard, broth microdilution); type: cell-based; settings: with CAZ and zinc chelator
Source text: as §4, §1
as §2, with “CAZ” for “cefepime”, “Three plates were made per experiment, one without the zinc chelator (plate 1), one with 16 μg/ml of the zinc chelator (plate 2) and one with 32 μg/ml of the zinc chelator (plate 3).” left out, “concentration” for “concentration,”
as §3, with “zinc chelator/CAZ/avibactam” for “zinc chelator/FEP/avibactam”, “control, bacteria+CAZ” for “control, bacteria+FEP”, “control, bacteria+CAZ+zinc” for “control, bacteria+FEP+zinc”, “Tables 3” for “Tables 1”, “and 4,” for “and 2,”, “of CAZ” for “of FEP”
as §5

MBL class IMP = settings: in combination with cefepime; cited from earlier work
MBL-producers = settings: in combination with cefepime; cited from earlier work

SMILES: N[C@@H](CN[C@@H](CN[C@@H](CC(=O)O)C(=O)O)C(=O)O)C(=O)O [aspergillomarasmine A]
- in vivo activity (NDM; mouse models): shown in vivo activity in mouse models
- doses required to reverse carbapenem resistance (NDM; mouse, in vivo): relatively high doses

SMILES: C[C@@H](O)[C@H]1C(=O)N2C(C(=O)O)=C(S[C@@H]3CN[C@H](C(=O)N(C)C)C3)[C@H](C)[C@H]12 [meropenem]
- sensitivity of gram-negative bacteria with MBL [1]: resistant to the antibiotic

SMILES: NC(=O)[C@@H]1CC[C@@H]2CN1C(=O)N2OS(=O)(=O)O [Avibactam, avibactam]
- FICI Avibactam ([2]; avibactam 0.25 μg/mL): 0.0001
- FICI Avibactam ([2]; avibactam 1 μg/mL): 0.0005
- FICI Avibactam ([2]; avibactam 4 μg/mL): 0.0020
- FICI Avibactam ([2]; avibactam 8 μg/mL): 0.0039
- FICI Avibactam ([2]; avibactam 16 μg/mL): 0.0078
- FICI Avibactam ([3]; avibactam 0.25 μg/mL): 0.0001
- FICI Avibactam ([3]; avibactam 1 μg/mL): 0.0005
- FICI Avibactam ([3]; avibactam 4 μg/mL): 0.0020
- FICI Avibactam ([3]; avibactam 8 μg/mL): 0.0039
- FICI Avibactam ([3]; avibactam 16 μg/mL): 0.0078

SMILES: NCCN[C@H]1CC[C@H](CC(=O)N[C@H]2Cc3cccc(C(=O)O)c3OB2O)CC1 [taniborbactam]
- effect against MBL class IMP (MBL class IMP): no effect
- activity against MBL-producers (MBL-producers): potent activity
